According to patent publication US20250002855A1, “METHODS FOR EXPANDING T CELLS FOR THE TREATMENT OF CANCER AND RELATED MALIGNANCIES” (Immatics US, Inc., priority 2020, published 2025):

Assays:
[1] = system: tumor-infiltrating lymphocytes; conditions: in the presence of IL-21; after 2 weeks of culture; cited from earlier work
[2] = system: γδ T cells; assay: δ1 and δ2 populations by flow cytometry; assay type: cell-based, human; conditions: Day 21; culture without vs with zoledronate (5 μM)
Excerpt: Cells were harvested on Day 21 and analyzed by flow cytometry to determine δ1 and δ2 populations.
The presence of δ1 cells as a percentage of live cells is shown for two donors in FIG. 18A & 18B.

SMILES	Tcm αβ T cells (CD28+CD62L+) [1]	δ1 and δ2 populations [2]
O=C(CCCCCCC(=O)Nc1ccccc1)NO [SAHA, suberoylanilide hydroxamic acid]	increase Tcm αβ T cells	–
O=P(O)(O)C(O)(Cn1ccnc1)P(=O)(O)O [zoledronate]	–	lack of zoledronate in the culture results in a polyclonal population
